Measurements: patent publication US20260159498A1, “AKT3 MODULATORS” (GEORGIAMUNE LLC, priority 2021, published 2026)

Molecular target: T1, Akt3 (Homo sapiens, UniProt Q9Y243)
T1 construct: endogenous in cells; host or cells: human CD4+/CD45RA+/CD25- naive T cells under Treg induction conditions
Experiment: Akt3 inhibition activity
Format: cell-based

T1 sequence (Q9Y243 whole entry): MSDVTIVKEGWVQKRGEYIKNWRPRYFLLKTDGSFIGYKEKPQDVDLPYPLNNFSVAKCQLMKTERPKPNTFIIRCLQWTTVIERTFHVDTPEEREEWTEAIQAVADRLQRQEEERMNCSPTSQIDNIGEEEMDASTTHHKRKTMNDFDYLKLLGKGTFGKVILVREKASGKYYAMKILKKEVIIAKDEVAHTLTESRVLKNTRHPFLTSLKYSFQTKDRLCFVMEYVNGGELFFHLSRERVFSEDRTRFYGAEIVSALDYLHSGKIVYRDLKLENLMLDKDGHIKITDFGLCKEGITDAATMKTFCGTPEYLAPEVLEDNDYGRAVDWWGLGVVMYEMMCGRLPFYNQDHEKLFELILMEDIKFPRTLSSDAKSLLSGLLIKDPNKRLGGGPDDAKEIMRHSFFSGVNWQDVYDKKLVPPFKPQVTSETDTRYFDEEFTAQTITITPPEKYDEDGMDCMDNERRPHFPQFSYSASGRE

| Compound | IC50 |
| --- | --- |
| Cc1cc(Nc2ccc(-c3nc4cc(Nc5ccnc(C)c5)ccc4o3)cc2)ccn1 [Compound 39, N-(2-methylpyridin-4-yl)-2-(4-((2-methylpyridin-4-yl)amino)phenyl)benzo[d]oxazol-5-amine] | < 5000 nM |
| Cc1cc(Nc2cc(C)c3c(c2)CN(c2cccc(Nc4ccncc4)c2)C3=O)ccn1 [Compound 44, 7-methyl-5-((2-methylpyridin-4-yl)amino)-2-(3-(pyridin-4-ylamino)phenyl)isoindolin-1-one] | < 1000 nM |
| Cc1cc2c(cc1Nc1ccncc1)CN(c1cccc(Nc3ccncc3)c1)C2=O [Compound 31, 6-methyl-5-(pyridin-4-ylamino)-2-(3-(pyridin-4-ylamino)phenyl)isoindolin-1-one] | < 5000 nM |
| O=C1c2c(F)cc(Nc3ccncc3)cc2CN1c1cccc(Nc2ccncc2)c1 [Compound 34, 7-fluoro-5-(pyridin-4-ylamino)-2-(3-(pyridin-4-ylamino)phenyl)isoindolin-1-one] | < 5000 nM |
| Cc1ccc(N2Cc3cc(Nc4ccncc4)ccc3C2=O)cc1Nc1ccncc1 [Compound 27, 2-(4-methyl-3-(pyridin-4-ylamino)phenyl)-5-(pyridin-4-ylamino)isoindolin-1-one] | < 1000 nM |
| Cc1cc(Nc2ccncc2)cc2c1C(=O)N(c1cccc(Nc3ccncc3)c1)C2 [Compound 30, 7-methyl-5-(pyridin-4-ylamino)-2-(3-(pyridin-4-ylamino)phenyl)isoindolin-1-one] | < 1000 nM |
| Cc1cc(Nc2cccc(-c3nc4cc(Nc5ccnc(C)c5)ccc4o3)c2)ccn1 [Compound 40, N-(2-methylpyridin-4-yl)-2-(3-((2-methylpyridin-4-yl)amino)phenyl)benzo[d]oxazol-5-amine] | < 2000 nM |
| Cc1cc(Nc2ccncc2)cc(N2Cc3cc(Nc4ccncc4)ccc3C2=O)c1 [Compound 26, 2-(3-methyl-5-(pyridin-4-ylamino)phenyl)-5-(pyridin-4-ylamino)isoindolin-1-one] | < 1000 nM |
| O=C1c2ccc(Nc3ccncc3)cc2CN1c1cc(F)cc(Nc2ccncc2)c1 [Compound 37, 2-(3-fluoro-5-(pyridin-4-ylamino)phenyl)-5-(pyridin-4-ylamino)isoindolin-1-one] | < 2000 nM |
| Cc1cc(Nc2ccc(-c3nc4ccc(Nc5ccnc(C)c5)cc4o3)cc2)ccn1 [Compound 41, N-(2-methylpyridin-4-yl)-2-(4-((2-methylpyridin-4-yl)amino)phenyl)benzo[d]oxazol-6-amine] | < 5000 nM |
| O=C1c2cc(F)c(Nc3ccncc3)cc2CN1c1cccc(Nc2ccncc2)c1 [Compound 33, 6-fluoro-5-(pyridin-4-ylamino)-2-(3-(pyridin-4-ylamino)phenyl)isoindolin-1-one] | < 1000 nM |
| Cc1cc(Nc2cccc(-c3nc4ccc(Nc5ccnc(C)c5)cc4o3)c2)ccn1 [Compound 42, N-(2-methylpyridin-4-yl)-2-(3-((2-methylpyridin-4-yl)amino)phenyl)benzo[d]oxazol-6-amine] | < 5000 nM |
| O=C1c2ccc(Nc3ccncc3)c(F)c2CN1c1cccc(Nc2ccncc2)c1 [Compound 32, 4-fluoro-5-(pyridin-4-ylamino)-2-(3-(pyridin-4-ylamino)phenyl)isoindolin-1-one] | < 5000 nM |
| Cc1cc(Nc2ccc3oc(-c4cccc(Nc5ccc(F)cc5)c4)nc3c2)ccn1 [Compound 43, 2-(3-((4-fluorophenyl)amino)phenyl)-N-(2-methylpyridin-4-yl)benzo[d]oxazol-5-amine] | < 5000 nM |
| Cc1cc(Nc2cccc(N3Cc4cc(Nc5ccnc(C)c5)cc(C)c4C3=O)c2)ccn1 [Compound 45, 7-methyl-5-((2-methylpyridin-4-yl)amino)-2-(3-((2-methylpyridin-4-yl)amino)phenyl)isoindolin-1-one] | < 1000 nM |
| O=C1c2ccc(Nc3ccncc3)cc2CN1c1ccc(F)c(Nc2ccncc2)c1 [Compound 38, 2-(4-fluoro-3-(pyridin-4-ylamino)phenyl)-5-(pyridin-4-ylamino)isoindolin-1-one] | < 1000 nM |
